Here are results for 17 molecules from PubChem BioAssay (NCI).

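Grown in 96-well plates, cells were treated for 48 hours with each compound at five concentrations. Insufficient inhibition: endpoint recorded as highest concentration tested. At the GI50, growth is halved. The concentration for full growth arrest is given as TGI.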 Where only a bound is given, the exact number is not on record here.

Among the test systems are HL-60(TB) leukemia; HT29 colon; LOX IMVI melanoma; NCI-H226 lung; OVCAR-3 ovarian; SW-620 colon; U251 CNS; UO-31 renal; HOP-92 NSCLC; DU-145 prostate.
Common to all, as to test: NCI tumour cell line growth inhibition, 48 h

On to `Nc1ncnc2c1ncn2CCCC(c1ccccc1)P(=O)(O)O` (centres undefined), for which the TGI with HL-60(TB) leukemia, in the assay with HT29 colon, with LOX IMVI melanoma, in the assay on NCI-H226 lung, in the assay on OVCAR-3 ovarian and in the assay on SW-620 colon was above 100 µM in each case. Further, the TGI in the assay with U251 CNS and with UO-31 renal was above 100 µM in each case.
In the case of `N=c1n(CC(=O)NC23CC4CC(CC(C4)C2)C3)c2ccccc2n1CC(=O)NC12CC3CC(CC(C3)C1)C2`, the TGI with HL-60(TB) leukemia was determined as 4.82 µM; in the assay with HOP-92 NSCLC it was 3.06 µM; in the assay with HT29 colon it was 3.21 µM; in the assay on OVCAR-3 ovarian, 3.32 µM; in the assay with SW-620 colon, 3 µM; in the assay with U251 CNS it was 3.02 µM. For the same molecule, in the assay with UO-31 renal, the TGI was 26 µM.
For `Cc1c(-c2coc(-c3ccccc3)n2)c(=O)n(-c2ccccc2)n1C`, the TGI with HL-60(TB) leukemia, in the assay with HOP-92 NSCLC, in the assay with HT29 colon, in the assay with LOX IMVI melanoma, with NCI-H226 lung and in the assay on OVCAR-3 ovarian was above 100 µM each time. Also, the TGI with SW-620 colon, in the assay with U251 CNS and with UO-31 renal was above 100 µM in each case.
For the molecule `COc1ccc(N2CN(C)CSC2=S)cc1`, the TGI was above 100 µM with DU-145 prostate; above 100 µM in the assay with HL-60(TB) leukemia; above 100 µM with HT29 colon; above 100 µM with LOX IMVI melanoma; 24.4 µM in the assay with OVCAR-3 ovarian; above 100 µM in the assay with SW-620 colon. Moreover, the TGI with U251 CNS and with UO-31 renal was above 100 µM in each case.
Turning to `CO[C@H]1CC[C@]2(C)C3=CC[C@@]4(C)C(CC[C@@H]4C(C)CC[C@@H](C)C(C)C)C(=CCC2C1)O3` (some centres undefined), the TGI in the assay on HL-60(TB) leukemia, in the assay with HOP-92 NSCLC, in the assay with HT29 colon, in the assay with LOX IMVI melanoma, with NCI-H226 lung and with OVCAR-3 ovarian was above 25 µM each time. Moreover, the TGI in the assay with SW-620 colon, in the assay with U251 CNS and in the assay with UO-31 renal was above 25 µM throughout.
With `Cc1ccc2n(c1)cc(-c1ccc(/C=N/NC(=N)N/N=C/c3ccc(-c4cn5cc(C)ccc5[n+]4C)cc3)cc1)[n+]2C`, the TGI in the assay with HL-60(TB) leukemia was above 100 µM; in the assay with HT29 colon, above 100 µM; with SW-620 colon, above 100 µM; in the assay with U251 CNS, above 100 µM; in the assay with UO-31 renal, 44.1 µM.
Take `Fc1ccc2[nH]cc(-c3nc(-c4c[nH]c5ccncc45)cs3)c2c1`: the GI50 in the assay with DU-145 prostate is 1.69 µM; in the assay on HL-60(TB) leukemia it was 2.07 µM; in the assay on OVCAR-3 ovarian, 1.8 µM; in the assay with UO-31 renal it was 1.33 µM. The TGI in the assay with DU-145 prostate was 3.1 µM; with HL-60(TB) leukemia it was 4.58 µM; in the assay on OVCAR-3 ovarian, 3.3 µM; in the assay with UO-31 renal, 2.61 µM.
As to `Brc1c2nc3ccccc3nc2n2ccc3ccccc3c12`, the TGI with HL-60(TB) leukemia, with HOP-92 NSCLC, in the assay with LOX IMVI melanoma, in the assay with OVCAR-3 ovarian, in the assay on SW-620 colon and with U251 CNS was above 100 µM in each case. The molecule further displayed a TGI with UO-31 renal above 100 µM.
On to `Cc1cc(Br)cc(C)c1NC(=O)C(=O)C(C(=O)c1ccncc1)C1OC(=O)c2ccccc21` (centres undefined), for which the TGI in the assay with HL-60(TB) leukemia, in the assay on HOP-92 NSCLC, in the assay on LOX IMVI melanoma, in the assay with NCI-H226 lung, with OVCAR-3 ovarian and in the assay with SW-620 colon was above 100 µM in each case. Besides, the TGI in the assay on U251 CNS and with UO-31 renal was above 100 µM each time.
On to `N#CNC(=NCc1ccccc1)NCCc1c[nH]c2ccccc12`, for which the TGI in the assay with HL-60(TB) leukemia, in the assay with HT29 colon, in the assay with LOX IMVI melanoma, in the assay on NCI-H226 lung, in the assay with OVCAR-3 ovarian and with SW-620 colon was above 100 µM in each case. The TGI was above 100 µM with U251 CNS and 86.2 µM in the assay with UO-31 renal.
`COc1cc(N)c2[nH]c3c(C)ccc(C)c3c2c1`: the TGI in the assay with HL-60(TB) leukemia, in the assay on HT29 colon, in the assay on LOX IMVI melanoma, in the assay on NCI-H226 lung, in the assay with OVCAR-3 ovarian and in the assay with SW-620 colon was above 100 µM throughout. The TGI in the assay on UO-31 renal was above 100 µM.
`N/C(=N\S(=O)(=O)c1ccc(-c2ccccn2)s1)Nc1ccc(Cl)cc1`: the TGI with DU-145 prostate amounted to 34.3 µM; with HOP-92 NSCLC, 28.9 µM; in the assay on HT29 colon it was 35.2 µM; in the assay on LOX IMVI melanoma, 33.5 µM; in the assay on NCI-H226 lung, 35.8 µM; in the assay on OVCAR-3 ovarian, 67.6 µM. For the same molecule, the TGI in the assay on SW-620 colon was 45.1 µM; in the assay on U251 CNS, 28.6 µM; in the assay on UO-31 renal it was 34.9 µM.
Regarding `COc1cc2c(c(O)c1C)C(=O)CC(c1ccccc1)O2` (centres undefined), the TGI with HOP-92 NSCLC was 40.8 µM; in the assay with HT29 colon, above 10 µM; with LOX IMVI melanoma, above 10 µM; with NCI-H226 lung, 41.5 µM; in the assay on OVCAR-3 ovarian, above 100 µM; with SW-620 colon it was above 10 µM. In addition, the TGI in the assay on U251 CNS and in the assay on UO-31 renal was above 100 µM each time.
With `O=C1CCCCC/C1=C\c1cccc([N+](=O)[O-])c1`, the TGI in the assay on DU-145 prostate was above 100 µM; in the assay on HL-60(TB) leukemia, 57 µM; with HT29 colon it was above 100 µM; in the assay with OVCAR-3 ovarian it was above 100 µM; in the assay on SW-620 colon it was above 100 µM; in the assay on U251 CNS it was above 100 µM. Further, in the assay on UO-31 renal, the TGI turned out to be 80.1 µM.
Consider `COC1=CC(=O)C2C(C1=O)[C@@H]1c3ccccc3OC(C)(C)[C@H]21` (some centres undefined), for which the TGI in the assay on HL-60(TB) leukemia came out at 33.8 µM; with HOP-92 NSCLC it was 35.4 µM; in the assay with HT29 colon, 99.4 µM; in the assay on LOX IMVI melanoma, 27.2 µM; in the assay with NCI-H226 lung, 54.7 µM; with OVCAR-3 ovarian, 28.3 µM. Further, the TGI is 48 µM with SW-620 colon, above 100 µM with U251 CNS and 38.1 µM in the assay with UO-31 renal.
As to `Clc1ccc2nc3n[nH]c(Cl)c3nc2c1`, the TGI in the assay with DU-145 prostate was above 100 µM; in the assay with HT29 colon, above 100 µM; with OVCAR-3 ovarian it was above 100 µM; in the assay on SW-620 colon it was above 100 µM; with U251 CNS, above 100 µM; in the assay on UO-31 renal, 68.2 µM.
For the molecule `Cn1cc(-c2nc(-c3c[nH]c4ccncc34)cs2)c2ccccc21`, the GI50 in the assay with DU-145 prostate is 1.74 µM; in the assay on OVCAR-3 ovarian it was 1.69 µM; with UO-31 renal it was 1.38 µM. Moreover, the values for the TGI in the assay on DU-145 prostate, with OVCAR-3 ovarian and with UO-31 renal were 3.15 µM, 3.09 µM and 2.69 µM, respectively.
